Reference: patent US20240189328A1, “COMBINATION OF NOREPINEPHRINE REUPTAKE INHIBITOR AND A C[…] USE IN TREATING SLEEP APNEA” (APNIMED, INC. (DELAWARE), priority 2021, published 2024)

Tested on: participants with moderate to severe OSA
Assay: Open-label 4-period dose-escalation study of dronabinol+atomoxetine, polysomnography (Example 3)
Assay type: in vivo, human
Settings: atomoxetine 80 mg alone, week 1 PSG, compared to baseline
Text: This study is designed to assess the safety and efficacy for OSA of three escalating dose combinations of atomoxetine with dronabinol, compared to baseline and to atomoxetine alone.
The present study (SEED) is an open-label, 4 consecutive period dose-escalation study of combinations of atomoxetine and dronabinol in participants with moderate to severe OSA. Participants will undergo initial pre-screening to determine potential study eligibility. […] Only participants who meet all non-PSG enrollment criteria at Visit 1 are eligible for a screening PSG. On a case by case basis and with agreement of the Sponsor a PSG conducted at the site within 3 months may be used instead of the Screening PSG.
Participants who meet all enrollment criteria will receive an escalating dose of atomoxetine the first week: 3 days of atomoxetine 40 mg followed by 4 days of atomoxetine 80 mg. Participants will then receive escalating dose combinations of atomoxetine and dronabinol for the next 3 weeks. The weekly dose schedule is as follows: • Week 1: atomoxetine 40 mg×3 days, then 80 mg×4 days • Week 2: atomoxetine 40 mg/dronabinol 2.5 mg • Week 3: atomoxetine 80 mg/dronabinol 5 mg • Week 4: atomoxetine 80 mg/dronabinol 10 mg […]

CNCCC(Oc1ccccc1C)c1ccccc1 (single isomer, unassigned; (-)) [Ato 80 mg, (−)-N-Methyl-3-phenyl-3-(o-tolyloxy)-propylamine]
Hypoxic burden (HB4): significantly reduced
